Where “and” joins values, the source holds several entries; their conditions need not be identical. Identical values can stand only once.
Assay: Biodistribution of [^18F]-radioactivity in healthy male NMRI mice after intravenous injection (gamma counter)
Format: in vivo
Settings: for [^18F]-radioactivity in adrenals / [^18F]-radioactivity in blood / [^18F]-radioactivity in bone / [^18F]-radioactivity in brain (brain uptake) / [^18F]-radioactivity in fat / [^18F]-radioactivity in heart / [^18F]-radioactivity in intestine / [^18F]-radioactivity in kidney / [^18F]-radioactivity in liver / [^18F]-radioactivity in lung / [^18F]-radioactivity in muscle / [^18F]-radioactivity in pancreas / [^18F]-radioactivity in skin / [^18F]-radioactivity in spleen / [^18F]-radioactivity in stomach / [^18F]-radioactivity in testes / [^18F]-radioactivity in thyroid: normal mice, i.v., decay corrected
Experimental: The biodistribution of [^18F]-2d and [^18F]-5d was investigated in healthy male NMRI mice (28.3-35.6 g body weight, n=3 animals per time point) at 2, 5, 30, 60 and 180/240 min after intravenous injection of 0.264 MBq [^18F]-2d and 0.268 MBq [^18F]-5d per animal, respectively. Until the indicated time points urine and faeces were quantitatively collected. At the respective time points the mice were sacrificed and the tissues were removed. [^18F]-radioactivity was analyzed in a gamma counter (Tab. 1.1, 2.1 and 1.2, 2.2).

Q: Which “Initial elimination of the radioactivity from the brain” value (mice, 30 min p.i.) does the source give for `COc1ccc(OCC[18F])c(CN(C(C)=O)c2cccnc2Oc2cccc(C)c2C)c1` [[^18F]-5d, N-[2-(2,3-dimethylphenoxy)pyridin-3-yl]-N-[2-(2-[^18F]fluoroethoxy)-5-methoxybenzyl]acetamide] here?
A: ca. 73%

Q: And the “Elimination from mouse brain, 2 min/30 min ratio of brain uptake (% ID/g)” value (mice, brain, 2 min to 30 min)?
A: 3.7

Q: What about the “[^18F]-radioactivity in adrenals” value (2 min) of the same molecule?
A: 9.90 ± 1.17 % injected dose/g

Q: What about the “[^18F]-radioactivity in blood” value (2 min) of the same molecule?
A: 2.75 ± 0.40 % injected dose/g

Q: What about the “[^18F]-radioactivity in bone” value (2 min) of the same molecule?
A: 1.02 ± 0.31 % injected dose/g

Q: And the “[^18F]-radioactivity in brain (brain uptake)” value (from here on “[^18F]-radioactivity in brain”) (2 min)?
A: 1.61±0.23 % injected dose/g

Q: What about the “[^18F]-radioactivity in fat” value (2 min) of the same molecule?
A: 0.24 ± 0.08 % injected dose/g

Q: And the “[^18F]-radioactivity in heart” value (2 min)?
A: 17.21 ± 1.43 % injected dose/g

Q: And the “[^18F]-radioactivity in intestine” value (2 min)?
A: 0.77 ± 0.24 % injected dose/g

Q: And the “[^18F]-radioactivity in kidney” value (2 min)?
A: 6.15 ± 1.95 % injected dose/g

Q: And the “[^18F]-radioactivity in liver” value (2 min)?
A: 1.51 ± 0.38 % injected dose/g

Q: And the “[^18F]-radioactivity in lung” value (2 min)?
A: 65.87 ± 15.87 % injected dose/g

Q: And the “[^18F]-radioactivity in muscle” value (2 min)?
A: 1.23 ± 0.27 % injected dose/g

Q: And the “[^18F]-radioactivity in pancreas” value (2 min)?
A: 1.54 ± 0.34 % injected dose/g

Q: What about the “[^18F]-radioactivity in skin” value (2 min) of the same molecule?
A: 0.52 ± 0.02 % injected dose/g

Q: And the “[^18F]-radioactivity in spleen” value (2 min)?
A: 1.40 ± 0.06 % injected dose/g

Q: And the “[^18F]-radioactivity in stomach” value (2 min)?
A: 2.03 ± 1.05 % injected dose/g

Q: And the “[^18F]-radioactivity in testes” value (2 min)?
A: 0.50 ± 0.01 % injected dose/g

Q: And the “[^18F]-radioactivity in thyroid” value (2 min)?
A: 3.97 ± 1.12 % injected dose/g

Q: What about the “[^18F]-radioactivity in adrenals” value (5 min) of the same molecule?
A: 28.94 ± 11.26 % injected dose/g

Q: What about the “[^18F]-radioactivity in blood” value (5 min) of the same molecule?
A: 2.13 ± 0.23 % injected dose/g

Q: What about the “[^18F]-radioactivity in bone” value (5 min) of the same molecule?
A: 1.41 ± 0.19 % injected dose/g

Q: And the “[^18F]-radioactivity in brain” value (5 min)?
A: 1.13 ± 0.22 % injected dose/g

Q: And the “[^18F]-radioactivity in fat” value (5 min)?
A: 0.24 ± 0.03 % injected dose/g

Q: What about the “[^18F]-radioactivity in heart” value (5 min) of the same molecule?
A: 18.45 ± 1.69 % injected dose/g

Q: And the “[^18F]-radioactivity in intestine” value (5 min)?
A: 1.42 ± 0.02 % injected dose/g

Q: What about the “[^18F]-radioactivity in kidney” value (5 min) of the same molecule?
A: 8.53 ± 1.50 % injected dose/g

Q: What about the “[^18F]-radioactivity in liver” value (5 min) of the same molecule?
A: 2.19 ± 31^ % injected dose/g

Q: What about the “[^18F]-radioactivity in lung” value (5 min) of the same molecule?
A: 45.38 ± 5.54 % injected dose/g

Q: And the “[^18F]-radioactivity in muscle” value (5 min)?
A: 1.89 ± 0.32 % injected dose/g

Q: What about the “[^18F]-radioactivity in pancreas” value (5 min) of the same molecule?
A: 2.37 ± 0.56 % injected dose/g

Q: What about the “[^18F]-radioactivity in skin” value (5 min) of the same molecule?
A: 0.79 ± 0.07 % injected dose/g

Q: What about the “[^18F]-radioactivity in spleen” value (5 min) of the same molecule?
A: 3.25 ± 0.15 % injected dose/g

Q: And the “[^18F]-radioactivity in stomach” value (5 min)?
A: 3.04 ± 0.49 % injected dose/g

Q: What about the “[^18F]-radioactivity in testes” value (5 min) of the same molecule?
A: 0.71 ± 0.10 % injected dose/g

Q: What about the “[^18F]-radioactivity in thyroid” value (5 min) of the same molecule?
A: 4.25 ± 0.79 % injected dose/g

Q: What about the “[^18F]-radioactivity in adrenals” value (30 min) of the same molecule?
A: 12.31 ± 0.43 % injected dose/g

Q: What about the “[^18F]-radioactivity in blood” value (30 min) of the same molecule?
A: 0.80 ± 0.17 % injected dose/g

Q: And the “[^18F]-radioactivity in bone” value (30 min)?
A: 2.05 ± 0.08 % injected dose/g

Q: What about the “[^18F]-radioactivity in brain” value (30 min) of the same molecule?
A: 0.44±0.15 % injected dose/g and 0.44 ± 0.51 % injected dose/g

Q: And the “[^18F]-radioactivity in fat” value (30 min)?
A: 0.61 ± 0.26 % injected dose/g

Q: And the “[^18F]-radioactivity in heart” value (30 min)?
A: 7.53 ± 2.41 % injected dose/g

Q: What about the “[^18F]-radioactivity in intestine” value (30 min) of the same molecule?
A: 2.48 ± 0.78 % injected dose/g

Q: And the “[^18F]-radioactivity in kidney” value (30 min)?
A: 9.53 ± 0.82 % injected dose/g

Q: What about the “[^18F]-radioactivity in liver” value (30 min) of the same molecule?
A: 3.52 ± 1.35 % injected dose/g

Q: And the “[^18F]-radioactivity in lung” value (30 min)?
A: 9.83 ± 1.66 % injected dose/g

Q: What about the “[^18F]-radioactivity in muscle” value (30 min) of the same molecule?
A: 2.14 ± 0.31 % injected dose/g

Q: What about the “[^18F]-radioactivity in pancreas” value (30 min) of the same molecule?
A: 2.46 ± 0.19 % injected dose/g

Q: What about the “[^18F]-radioactivity in skin” value (30 min) of the same molecule?
A: 1.23 ± 0.21 % injected dose/g

Q: What about the “[^18F]-radioactivity in spleen” value (30 min) of the same molecule?
A: 5.68 ± 0.59 % injected dose/g
